# Columns and labels:
# NZB/W F1 female mice [1] = assay: Murine SLE model: flow cytometry of splenocytes; format: in vivo, mouse
# Description: Single cell suspensions were obtained from the spleens of NZB/W F1 mice at autopsy (at 43–44 weeks of age). The splenocytes were stained with PerCP-Cy5.5-conjugated anti-mouse CD3e (PerCP-cy5.5-CD3e, eBioscience, San Diego, CA, USA), fluorescein isothiocyanate (FITC)-conjugated anti-mouse CD4 (FITC-CD4, BD Biosciences, San Jose, CA, USA), PE-cyanine7-conjugated anti-mouse CD8a (eBioscience), allo-phycocyanin (APC)-conjugated anti-mouse CD25 (BD Biosciences) and PE-conjugated anti-mouse CD138 (BD Biosciences).
# T cell profile was analyzed as described previously; briefly, we examined proportions of Th1 cells (CD4^+CD25^+T-bet^+), Th2 cells (CD4^+CD25^+GATA-3^+), Th17 cells (CD4^+CD25^+ROR-γt^+), and Treg cells (CD4^+CD25^+Foxp3^+). To analyze T helper subsets, the splenocytes were stained with antibodies to CD4 and CD25 (FITC-conjugated anti-mouse CD4 and APC-conjugated anti-mouse CD25, BD Biosciences). Cells were fixed and permeabilized prior to staining with T-bet, GATA-3, ROR-γt and Foxp3 antibodies (PE-, BD Biosciences).
# NZB/W F1 female mice [2] = assay: Murine SLE model: serum cytokine levels (Milliplex); format: in vivo, mouse; conditions: for Serum GM-CSF / Serum IFN-γ / Serum IL-1α / Serum IL-1β / Serum IL-2 / Serum IL-4 / Serum IL-6 / Serum IL-10 / Serum IL-12(70) / Serum IL-15 / Serum IL-17 / Serum IL-22 / Serum IL-23 / Serum TGF-β1 / Serum TNF-α: at autopsy, mean ± SD
# Method: Serum samples were assayed using Milliplex® MAP Kits (Millipore) for granulocyte macrophage-colony stimulating factor (GM-CSF), interferon-γ (IFN-γ), interleukin-1α (IL-1α), IL-1β, IL-10, IL-12(p70), IL-15, IL-17a, IL-2, IL-4, IL-6, tumor necrosis factor α (TNF-α), transforming growth factor beta 1 (TGF-β1), IL-22, IL-23, IFN-inducible protein 10 (IP-10 (CXCL10)) and chemokine (C-C motif) ligand 2 (CCL2 (MCP-1)).
# NZB/W F1 female mice [3] = assay: Murine SLE model: serum chemistry and necropsy; conditions: for ALP / ALT / AST / Albumin / CPK / Ca / Total bilirubin / Total protein: serum at autopsy, mean ± SD
# Method: Control mice received 150 μL of vehicle (Ethanol: Kolliphor® EL: saline = 1:1:8) and were subjected to the same schedule. Survival rate and incidence of severe proteinuria (percent individual mice with urine protein ≥300 mg/dL) were calculated. Survival had been monitored until 42 weeks of age.
# [4] = group D: CKD-506 10 mg/kg/day, n = 10
# [5] = group E: CKD-506 30 mg/kg/day, n = 14
substance,measurement,setting,value
CKD-506,fewer CD4−CD8− cells compared with group vehicle,"NZB/W F1 female mice [1]; group CKD10, spleen",19.1%
same,fewer CD138+ cells compared with group vehicle,"NZB/W F1 female mice [1]; group CKD10, spleen",21.2%
same,fewer CD4−CD8− cells compared with group vehicle,"NZB/W F1 female mice [1]; group CKD30, spleen",28.3%
same,fewer CD138+ cells compared with group vehicle,"NZB/W F1 female mice [1]; group CKD30, spleen",25.2%
same,CD4−CD8+ T cells in spleen vs vehicle,NZB/W F1 female mice [1]; group CKD50,significantly more
same,percentage of CD25+ cells in spleen vs vehicle,NZB/W F1 female mice [1]; group CKD50,significantly lower
same,T-bet expression by CD4+ cells vs vehicle,"NZB/W F1 female mice [1]; group CKD50, spleen",significantly lower
same,fewer CD4−CD8− cells compared with group vehicle,"NZB/W F1 female mice [1]; group CKD50, spleen",27.3%
same,fewer CD138+ cells compared with group vehicle,"NZB/W F1 female mice [1]; group CKD50, spleen",31.6%
same,serum levels of IP-10 vs vehicle,"NZB/W F1 female mice [2]; group CKD50, 36 weeks of age",significantly lower
same,Mean serum levels of CCL2 vs vehicle,"NZB/W F1 female mice [2]; group CKD50, 36 weeks of age, difference not statistically significant",lower
same,Serum GM-CSF,NZB/W F1 female mice [2]; [4],2.65 ± 8.38 pg/mL
same,Serum IFN-γ,NZB/W F1 female mice [2]; [4],1.06 ± 3.34 pg/mL
same,Serum IL-1α,NZB/W F1 female mice [2]; [4],371.96 ± 261.58 pg/mL
same,Serum IL-1β,NZB/W F1 female mice [2]; [4],1.27 ± 2.04 pg/mL
same,Serum IL-2,NZB/W F1 female mice [2]; [4],1.91 ± 5.61 pg/mL
same,Serum IL-4,NZB/W F1 female mice [2]; [4],1.74 ± 0.60 pg/mL
same,Serum IL-6,NZB/W F1 female mice [2]; [4],7.21 ± 7.41 pg/mL
same,Serum IL-10,NZB/W F1 female mice [2]; [4],25.00 ± 25.33 pg/mL
same,Serum IL-12(70),NZB/W F1 female mice [2]; [4],1.94 ± 3.69 pg/mL
same,Serum IL-15,NZB/W F1 female mice [2]; [4],184.36 ± 280.13 pg/mL
same,Serum IL-17,NZB/W F1 female mice [2]; [4],10.40 ± 12.20 pg/mL
same,Serum IL-22,NZB/W F1 female mice [2]; [4],27.05 ± 31.48 pg/mL
same,Serum IL-23,NZB/W F1 female mice [2]; [4],1.96 ± 6.20 pg/mL
same,Serum TGF-β1,NZB/W F1 female mice [2]; [4],73356.45 ± 22951.98 pg/mL
same,Serum TNF-α,NZB/W F1 female mice [2]; [4],7.91 ± 8.45 pg/mL
same,Serum GM-CSF,NZB/W F1 female mice [2]; [5],5.32 ± 15.20 pg/mL
same,Serum IFN-γ,NZB/W F1 female mice [2]; [5],6.60 ± 15.24 pg/mL
same,Serum IL-1α,NZB/W F1 female mice [2]; [5],458.40 ± 339.71 pg/mL
same,Serum IL-1β,NZB/W F1 female mice [2]; [5],74.66 ± 264.02 pg/mL
same,Serum IL-2,NZB/W F1 female mice [2]; [5],9.32 ± 17.79 pg/mL
same,Serum IL-4,NZB/W F1 female mice [2]; [5],8.60 ± 25.44 pg/mL
same,Serum IL-6,NZB/W F1 female mice [2]; [5],21.23 ± 50.94 pg/mL
same,Serum IL-10,NZB/W F1 female mice [2]; [5],56.55 ± 146.53 pg/mL
same,Serum IL-12(70),NZB/W F1 female mice [2]; [5],74.50 ± 238.09 pg/mL
same,Serum IL-15,NZB/W F1 female mice [2]; [5],162.41 ± 200.63 pg/mL
same,Serum IL-17,NZB/W F1 female mice [2]; [5],21.14 ± 54.60 pg/mL
same,Serum IL-22,NZB/W F1 female mice [2]; [5],13.00 ± 16.48 pg/mL
same,Serum IL-23,NZB/W F1 female mice [2]; [5],100.56 ± 376.25 pg/mL
same,Serum TGF-β1,NZB/W F1 female mice [2]; [5],58807.36 ± 25015.67 pg/mL
same,Serum TNF-α,NZB/W F1 female mice [2]; [5],16.25 ± 50.35 pg/mL
same,Serum GM-CSF,"NZB/W F1 female mice [2]; group F: 50 mg/kg/day, n = 14",1.89 ± 7.09 pg/mL
same,Serum IFN-γ,"NZB/W F1 female mice [2]; group F: 50 mg/kg/day, n = 14",2.07 ± 5.38 pg/mL
same,Serum IL-1α,"NZB/W F1 female mice [2]; group F: 50 mg/kg/day, n = 14",629.16 ± 480.71 pg/mL
same,Serum IL-1β,"NZB/W F1 female mice [2]; group F: 50 mg/kg/day, n = 14",3.86 ± 7.83 pg/mL
same,Serum IL-2,"NZB/W F1 female mice [2]; group F: 50 mg/kg/day, n = 14",4.09 ± 9.84 pg/mL
same,Serum IL-4,"NZB/W F1 female mice [2]; group F: 50 mg/kg/day, n = 14",3.70 ± 6.48 pg/mL
same,Serum IL-6,"NZB/W F1 female mice [2]; group F: 50 mg/kg/day, n = 14",5.69 ± 8.94 pg/mL
same,Serum IL-10,"NZB/W F1 female mice [2]; group F: 50 mg/kg/day, n = 14",8.31 ± 14.15 pg/mL
same,Serum IL-12(70),"NZB/W F1 female mice [2]; group F: 50 mg/kg/day, n = 14",15.62 ± 45.25 pg/mL
same,Serum IL-15,"NZB/W F1 female mice [2]; group F: 50 mg/kg/day, n = 14",26.24 ± 28.73 pg/mL
same,Serum IL-17,"NZB/W F1 female mice [2]; group F: 50 mg/kg/day, n = 14",4.82 ± 7.15 pg/mL
same,Serum IL-22,"NZB/W F1 female mice [2]; group F: 50 mg/kg/day, n = 14",6.37 ± 5.56 pg/mL
same,Serum IL-23,"NZB/W F1 female mice [2]; group F: 50 mg/kg/day, n = 14",41.34 ± 154.68 pg/mL
same,Serum TGF-β1,"NZB/W F1 female mice [2]; group F: 50 mg/kg/day, n = 14",73110.92 ± 17325.08 pg/mL
same,Serum TNF-α,"NZB/W F1 female mice [2]; group F: 50 mg/kg/day, n = 14",1.24 ± 2.60 pg/mL
same,"appearance of the spleen, kidneys, liver, lungs, or heart (gross or microscopic examination at necropsy)",NZB/W F1 female mice [3]; end of experiment,did not result in significant changes
same,serum ALT relative to reference range,"NZB/W F1 female mice [3]; group CKD50, significantly higher than the other groups",within the reference range
same,ALP,NZB/W F1 female mice [3]; group D: CKD-506 10 mg/kg/day,187.44 ± 62.24 U/l
same,ALT,NZB/W F1 female mice [3]; group D: CKD-506 10 mg/kg/day,18.10 ± 5.43 U/l
same,AST,NZB/W F1 female mice [3]; group D: CKD-506 10 mg/kg/day,44.20 ± 10.09 U/l
same,Albumin,NZB/W F1 female mice [3]; group D: CKD-506 10 mg/kg/day,1.91 ± 0.43 g/dL
same,CPK,NZB/W F1 female mice [3]; group D: CKD-506 10 mg/kg/day,86.70 ± 56.89 U/l
same,Ca,NZB/W F1 female mice [3]; group D: CKD-506 10 mg/kg/day,10.08 ± 1.26 mg/dL
same,Total bilirubin,NZB/W F1 female mice [3]; group D: CKD-506 10 mg/kg/day,0.22 ± 0.09 mg/dL
same,Total protein,NZB/W F1 female mice [3]; group D: CKD-506 10 mg/kg/day,4.74 ± 0.63 g/dL
same,ALP,NZB/W F1 female mice [3]; group E: CKD-506 30 mg/kg/day,155.92 ± 19.94 U/l
same,ALT,NZB/W F1 female mice [3]; group E: CKD-506 30 mg/kg/day,20.79 ± 2.91 U/l
same,AST,NZB/W F1 female mice [3]; group E: CKD-506 30 mg/kg/day,55.21 ± 19.34 U/l
same,Albumin,NZB/W F1 female mice [3]; group E: CKD-506 30 mg/kg/day,2.19 ± 0.43 g/dL
same,CPK,NZB/W F1 female mice [3]; group E: CKD-506 30 mg/kg/day,84.71 ± 31.40 U/l
same,Ca,NZB/W F1 female mice [3]; group E: CKD-506 30 mg/kg/day,9.65 ± 0.69 mg/dL
same,Total bilirubin,NZB/W F1 female mice [3]; group E: CKD-506 30 mg/kg/day,0.26 ± 0.12 mg/dL
same,Total protein,NZB/W F1 female mice [3]; group E: CKD-506 30 mg/kg/day,5.21 ± 0.71 g/dL
same,ALP,NZB/W F1 female mice [3]; group F: 50 mg/kg/day,153.08 ± 17.25 U/l
same,ALT,NZB/W F1 female mice [3]; group F: 50 mg/kg/day,29.07 ± 12.21 U/l
same,AST,NZB/W F1 female mice [3]; group F: 50 mg/kg/day,59.00 ± 56.14 U/l
same,Albumin,NZB/W F1 female mice [3]; group F: 50 mg/kg/day,2.26 ± 0.35 g/dL
same,CPK,NZB/W F1 female mice [3]; group F: 50 mg/kg/day,125.86 ± 177.18 U/l
same,Ca,NZB/W F1 female mice [3]; group F: 50 mg/kg/day,9.43 ± 0.59 mg/dL
same,Total bilirubin,NZB/W F1 female mice [3]; group F: 50 mg/kg/day,0.28 ± 0.14 mg/dL
same,Total protein,NZB/W F1 female mice [3]; group F: 50 mg/kg/day,5.35 ± 0.60 g/dL
